Measured values published in patent US5919934A, “Compounds, compositions, and methods for cancer imaging and therapy” (The George Washington University, priority 1997, dated 1999).
Like-named read-outs stand apart in the source and are kept apart here.

Key:
[1] = system: sigma receptors; conditions: human breast and melanoma tumor cells; cited from earlier work
[2] = system: sigma receptor; conditions: guinea pig brain; cited from earlier work
[3] = system: non-melanoma cells in the liver and lung; conditions: cited from earlier work
[4] = system: sigma receptors; format: binding, human; conditions: T47D cells; for IC50: 37° C., 1 hr, against [Tc-99m]EN6, read-out: IC50 for inhibition of binding of [Tc-99m]EN6
Procedure: T47D human ductal breast carcinoma cells were purchased from ATCC, Rockville, Md. and cultured in serum supplemented medium DMEM containing 10% heat inactivated fetal bovine serum (GIBCO) at 37° C. The cells were adherent and split weekly in a 1:20 ratio using trypsin/EDTA (GIBCO). The cells were then transferred to 24 well plates and allowed to be adherent and confluent (about 0.5 million cells) or the cells were grown in T75 cell culture flasks and were detached when they were confluent using trypsin/EDTA (0.025%) or scraped with a cell scraper in DMEM.
Competition binding studies in human ductal breast cancer cells (T47D) were performed as follows. T47D cells were cultured in serum supplemented medium (RPMI-1640) containing 10% heat inactivated fetal bovine serum (GIBCO) at 37° C. The cells were adherent and split weekly in a 1:20 ratio using trypsin/EDTA (GIBCO). The cells were scraped using a cell scraper from T75 culture flasks and centrifuged in a Sorvall 6000B centrifuge at a speed of 4000 rpm. The growth medium was removed and the cell pellet was resuspended in […] serum free media.
The affinity of compounds for sites labeled by [Tc-99m]EN6 in human breast cancer cells was determined by heterologous in-vitro competitive binding assays in whole cells. The following method was used: A small aliquot of the cell suspension (100 μL) was incubated with [Tc-99m]EN6 and varying concentrations to (10^-4 to 10^-12 M) of arylethylenediamines keeping a total volume 1.0 mL constant. The cells were incubated at 37° C. for 1 hr and subsequently filtered through a Brandel Cell harvester (Brandel, Gaithersburg, Md.) and washed with de-ionized cold water. The radioactivity associated with the cells on filters was counted on a Beckman (DP 5500) Gamma Counter.
The data was analyzed with the iterative nonlinear least square curve fitting program GraphPAD Inplot (Graph PAD Software, San Diego, Calif.). The Cheng-Prussoff equation was then used to convert IC50 values to apparent K1 values.

[5] = molecular target: T1, sigma-1 sites (Cavia porcellus, UniProt Q60492); experiment: Sigma-1 binding in guinea pig brain against [^3 H]-(+)-pentazocine
T1 construct: sigma-1 sites in guinea pig brain; from tissue; host or cells: guinea pig brain
T1 sequence (Q60492 whole entry): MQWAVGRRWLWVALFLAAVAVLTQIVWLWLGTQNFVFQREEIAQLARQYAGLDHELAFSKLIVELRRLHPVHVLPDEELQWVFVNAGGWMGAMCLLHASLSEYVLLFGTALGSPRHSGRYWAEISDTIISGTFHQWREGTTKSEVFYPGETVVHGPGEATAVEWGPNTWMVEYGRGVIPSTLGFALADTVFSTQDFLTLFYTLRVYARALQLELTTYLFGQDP

[6] = molecular target: T2, sigma-2 sites (Rattus norvegicus, UniProt Q5U3Y7); experiment: Sigma-2 binding in rat liver membrane preparation against [^3 H]DTG in the presence of dextrallorphan
T2 construct: sigma-2 sites in rat liver membrane preparation; from tissue; host or cells: rat liver membranes
T2 sequence (Q5U3Y7 1-176): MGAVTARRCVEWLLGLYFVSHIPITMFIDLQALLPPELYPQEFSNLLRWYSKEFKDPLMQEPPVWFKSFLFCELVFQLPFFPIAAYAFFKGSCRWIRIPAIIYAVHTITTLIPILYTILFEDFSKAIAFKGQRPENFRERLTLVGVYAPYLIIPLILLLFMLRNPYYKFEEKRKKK

[7] = system: sigma-1 and sigma-2 receptors; experiment: In-vivo blocking with BD1008 in Sprague-Dawley rats; conditions: 2 micromol BD1008 co-injected
Procedure: Animal biodistribution and blocking studies were performed in rats as follows. Sprague Dawley rats (200-250 g) were anesthetized with ketamine/xylazine and injected intravenously with ^99m Tc-EN6, XXIII, ([…]) in 0.2 ml saline containing up to 20% ethanol solution. At 0.5, 1, and 4 hr post-injection blood samples were drawn by cardiac puncture and the rats were sacrificed thereafter by cardiectomy while under ketamine/xylazine anesthesia. The organs of interest were then excised, blotted with tissue paper, weighed and the radioactivity counted. The % injected dose/organ was determined by comparison of the tissue radioactivity with suitably diluted, known quantity aliquots of the injected dose. […] The animals were sacrificed at 4 hr post-injection and the organs of interest were removed and handled as above.
S. B. Hellewell, et al., Rat liver and kidney contain high densities of sigma-1 and sigma-2 receptors: characterization by ligand binding and photoaffinity labeling, Eur. J. Pharmacol.--Mol. Pharmacol. Sect. 268:9-18 (1994), all of which are hereby incorporated by reference.

[8] = molecular target: T3, sigma receptors (Homo sapiens, UniProt Q5BJF2); conditions: MCF-7 cells, Scatchard's analysis; cited from earlier work
T3 construct: MCF-7 breast tumor cells express sigma receptors; host or cells: MCF-7 cells
T3 sequence (Q5BJF2 whole entry): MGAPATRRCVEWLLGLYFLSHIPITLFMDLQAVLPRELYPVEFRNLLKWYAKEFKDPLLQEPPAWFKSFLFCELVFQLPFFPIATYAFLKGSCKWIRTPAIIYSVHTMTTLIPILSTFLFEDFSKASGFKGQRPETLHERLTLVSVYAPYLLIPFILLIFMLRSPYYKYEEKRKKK

In the case of `CN(CCc1ccc([125I])cc1)CCN1CCCCC1` [4-[^125 I]PEMP, [^125 I]N-[2-(4-iodophenyl)ethyl]-N-methyl-2-(1-piperidinyl)ethylamine], the “specific binding to the sigma receptors” value [1] is given as “very high specific binding” and the “inhibition binding isotherms” value [2] is given as “consistent with sigma receptor pharmacology”.

In the case of `CCN(CC)CCNC(=O)c1ccc(I)cc1` [IDAB, N-(diethylaminoethyl)4-iodobenzamide], the “uptake by non-melanoma cells” value [3] is listed as “taken up in high concentrations”.

For `CN(CCc1ccc(I)cc1)CCN1CCCCC1` [IPEMP], the “inhibition of [Tc-99m]EN6 binding” value [4] was “dose-dependent inhibition of binding”, the IC50 [4] was 0.059 ± 0.005 µM and the Ki [5] was 0.00082 ± 0.00013 µM. It also gave a Ki [6] of 0.0152 ± 0.00235 µM.

In the case of `CN(CCc1ccc(Cl)c(Cl)c1)CCN1CCCC1` [BD1008], the “inhibition of [Tc-99m]EN6 binding” value [4] is reported as “dose-dependent inhibition of binding”, the IC50 [4] is reported as 0.047 ± 0.002 µM and the Ki ([6]; rat liver membrane, against [^3 H]DTG in the presence of dextrallorphan, read-out: Ki for sigma-2 sites) is reported as 0.0081 ± 0.0022 µM. For the same compound, the “inhibition of binding of ^99m Tc-complex in the kidneys” value ([7]; kidneys, 4 hr post-i.v. injection) was “about 60%”, the “reduction of radioactivity in liver” value ([7]; liver, 4 hr post-injection) was 34% and the “reduction of radioactivity in lungs” value ([7]; lungs, 4 hr post-injection) was 48%.

In the case of `O=C(NC1CCN(Cc2ccccc2)CC1)c1ccc([125I])cc1` [4-[^125 I]-4-(N-benzylpiperidin-4-yl)-4-iodobenzamide], the receptors per cell [8] is listed as “approximately a million”.
